Measured values published in patent US8785638B2, “Thieno [2, 3-B] pyridine derivatives as viral replication inhibitors” (Katholieke Universiteit Leuven, priority 2009, dated 2014).
Like-named read-outs stand apart in the source and are kept apart here.

What was measured:
[1] = target: LEDGF/p75-HIV-1 integrase interaction (Human immunodeficiency virus type 1 group M subtype B (isolate HXB2) (HIV-1), UniProt P04585); experiment: AlphaScreen assay of LEDGF-integrase interaction inhibition; format: binding
Summary of the method: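 Compounds (0.1 up to 100 μM) pre-incubated 30 min at 4° C. with 300 nM His6-integrase in pH 7.4 Tris buffer, then 100 nM flag-LEDGF/p75 added for 1 h at 4° C. Ni-chelate acceptor and anti-flag donor beads (20 μg/ml each) were incubated 1 h at 30° C. before reading AlphaScreen emission.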

[2] = system: HIV-1 (IIIB), HIV-1 (NL4.3); experiment: microbe, parasite or virus in culture; format: cell-based; conditions: for EC50: Human immunodeficiency virus 1, IIIB, MT4, MT-4 cells, 50% protection against HIV-induced cytopathogenic effect, MTT; for SI: selectivity index, ratio of CC50 to EC50
Summary of the method: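 MT-4 cells infected with HIV-1 IIIB or NL4.3; protection from virus-induced cytopathic effect measured by MTT reduction, OD 540 nm. EC50 is the dose giving 50% protection; CC50 is the concentration cutting mock-infected absorbance by 50%; SI = CC50/EC50.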

[3] = Cytotoxicity in mock-infected MT-4 cells (MTT); format: cell-based; conditions: human, 50% cytotoxic concentration
Summary of the method: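 MT-4 cells (HTLV-1-transformed T4 line) in RPMI 1640 with 10% FCS, mock-infected alongside HIV-infected cultures. Viability read by in situ MTT reduction, OD 540 nm. CC50 is the compound concentration cutting mock-infected control absorbance by 50%.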

Row | SMILES | IC50 ([1]; His6-tagged integrase 300 nM, flag-LEDGF/p75 100 nM, read-out: Alphascreen IC50) [nM] | EC50 [2] [nM] | SI [2] | CC50 [3] [µM] | IC50 [1] [nM]
1 | Cc1nc2sc3c(c2c(-c2ccc4ncsc4c2)c1C(OC(C)(C)C)C(=O)O)CCCC3 (centres unmarked) [Cpd 186, 2-[2-methyl-4-(benzo[d]thiazol-6-yl)-5,6,7,8-tetrahydro[1]benzothieno[2,3-b]pyridin-3-yl]-2-tert-butoxyacetic acid] | 430 | 38 | 2900 | 110 | –
2 | Cc1nc2sc3c(c2c(-c2ccc4c5c(ccnc25)CCO4)c1C(OC(C)(C)C)C(=O)O)CCCC3 (centres unmarked) [Cpd 190] | – | 15 | 8401 | 129 | 370
